Experiments:
[1] = tested on: PDGF-β-induced NHDF proliferation; assay: PDGF-β-induced NHDF proliferation assay; type: cell-based, human; settings: PDGF-β 10 ng/ml; FIGS. 8-12
Method: (§1) The activities of the compounds of the present invention were tested using a proliferation assay, such as the one described by N. Ali et al., J Pharmacol Sci, 2005, 98, 130-141. A defined number of cells is seeded in each well of a culture plate. In order to stimulate cell proliferation, a growth factor is added in some wells, while others remain unstimulated (basal proliferation conditions). To monitor the effects of substances of interest (oligosaccharides compounds according to the present invention) on basal and growth factor-induced cell proliferation, substances of interest are added at different concentrations (i.e. 0.1, 0.3, 1, 3, 10 or 30 μM) in presence or absence of the growth factor, respectively. After an incubation period of 24 hours, the total number of cells is estimated in all samples (generally through an indirect method, such as incorporation of radioactivity into the newly synthesised DNA or colorimetric assays based on cellular enzyme activities or metabolite production). The total number of cells for the control sample in which no substance of interest nor growth factor have been added is set to 1. The total number of cells in all the other samples is compared to this value in order to obtain the relative proliferation index.
Typically, cells are seeded in 48 or 96-well plates. After 2 h (i.e. the time required for cells to adhere to the support) the normal culture media is replaced by a minimal essential culture media in which cells are grown for 24 h (starvation period). This step is used to reduce cell growth (cell metabolism is slowed down in order to better visualise the growth factor stimulation effect) before adding an angiogenic protein, such as a growth factor i.e. FGF-2 or PDGF-β. No growth factor is added in basal proliferation conditions (independently of the presence or absence of the oligosaccharide of the present invention). To evaluate the inhibition of the oligosaccharide compounds according to the present invention on cell proliferation, the angiogenic protein (growth factor) is added at a fixed concentration (from 5 ng/ml to 10 ng/ml) with increasing amounts of oligosaccharide compounds (0.1, 0.3, 1, 3, 10 or 30 μM), which allows the IC50 value to be estimated (i.e. the oligosaccharide concentration at which the stimulatory effect of the growth factor is inhibited by 50%).
(§2) Following addition of the angiogenic protein (growth factor) over a 24 h stimulation period, a commercial reagent containing a substrate for a cellular enzyme is added and incubated for couple of hours. The degradation of the substrate by the enzyme leads to the production of a coloured product which is titrated by absorbance measurement. […]

[2] = tested on: FGF-2-induced NHDF (Normal Human Dermal Fibroblast) cell proliferation; assay: FGF-2-induced NHDF proliferation assay; type: cell-based; settings: compound 0.1 to 30 μM
Method: as §1
Typically, cells are seeded in 48 or 96-well plates. After 2 h (i.e. the time required for cells to adhere to the support) the normal culture media is replaced by a minimal essential culture media in which cells are grown for 24 h (starvation period). This step is used to reduce cell growth (cell metabolism is slowed down in order to better visualise the growth factor stimulation effect) before adding an angiogenic protein, such as a growth factor i.e. FGF-2 or PDGF-β. No growth factor is added in basal proliferation conditions (independently of the presence or absence of the oligosaccharide of the present invention). […]
as §2
In the following experiments the effects of compounds 240 and 241 (concentrations from 0.1 to 30 μM) were evaluated on FGF-2-induced NHDF (Normal Human Dermal Fibroblast) cell proliferation. […]

Compound	inhibition of PDGF-β-induced NHDF proliferation [1]	inhibition of FGF-2-induced fibroblast proliferation ([2]; FGF-2 5 ng/ml, FIGS. 6-7)	basal NHDF proliferation ([2]; control conditions, no growth factor)
C#CCCCOC1OC(COS(=O)(=O)[O-])C(OC2OC(C(=O)[O-])C(OC3OC(COS(=O)(=O)[O-])C(OC4OC(C(=O)[O-])C(OCc5ccccc5)C(OCc5ccccc5)C4OS(=O)(=O)[O-])C(OCc4ccccc4)C3NS(=O)(=O)[O-])C(OCc3ccccc3)C2OS(=O)(=O)[O-])C(OCc2ccccc2)C1NS(=O)(=O)[O-].[Na+].[Na+].[Na+].[Na+].[Na+].[Na+].[Na+].[Na+] (stereo not shown) [Compound 237]	inhibit PDGF-β proliferation (starting in the micromolar range)		
C#CCCCOC1OC(COS(=O)(=O)[O-])C(OC2OC(C(=O)[O-])C(OC3OC(COS(=O)(=O)[O-])C(OC4OC(C(=O)[O-])C(OC5OC(COS(=O)(=O)[O-])C(OC6OC(C(=O)[O-])C(OC7OC(COS(=O)(=O)[O-])C(OC8OC(C(=O)[O-])C(OC9OC(COS(=O)(=O)[O-])C(OC%10OC(C(=O)[O-])C(OCc%11ccccc%11)C(OCc%11ccccc%11)C%10OS(=O)(=O)[O-])C(OCc%10ccccc%10)C9NS(=O)(=O)[O-])C(OCc9ccccc9)C8OS(=O)(=O)[O-])C(OCc8ccccc8)C7NS(=O)(=O)[O-])C(OCc7ccccc7)C6OS(=O)(=O)[O-])C(OCc6ccccc6)C5NS(=O)(=O)[O-])C(OCc5ccccc5)C4OS(=O)(=O)[O-])C(OCc4ccccc4)C3NS(=O)(=O)[O-])C(OCc3ccccc3)C2OS(=O)(=O)[O-])C(OCc2ccccc2)C1NS(=O)(=O)[O-].[Na+].[Na+].[Na+].[Na+].[Na+].[Na+].[Na+].[Na+].[Na+].[Na+].[Na+].[Na+].[Na+].[Na+].[Na+].[Na+].[Na+].[Na+].[Na+].[Na+] (stereo not shown) [Compound 241]	inhibit PDGF-β proliferation (starting in the micromolar range)	inhibit FGF-2-induced fibroblast proliferation (starting in the micromolar range)	did not seem to be affected
